Our source for the Kd values is PMC9582717 (The Journal of Biological Chemistry, 2022).

This assay has as its target T1, SmChiP (chitoporin) (Serratia marcescens, UniProt I7GPX7).
T1 sequence (I7GPX7 28-467): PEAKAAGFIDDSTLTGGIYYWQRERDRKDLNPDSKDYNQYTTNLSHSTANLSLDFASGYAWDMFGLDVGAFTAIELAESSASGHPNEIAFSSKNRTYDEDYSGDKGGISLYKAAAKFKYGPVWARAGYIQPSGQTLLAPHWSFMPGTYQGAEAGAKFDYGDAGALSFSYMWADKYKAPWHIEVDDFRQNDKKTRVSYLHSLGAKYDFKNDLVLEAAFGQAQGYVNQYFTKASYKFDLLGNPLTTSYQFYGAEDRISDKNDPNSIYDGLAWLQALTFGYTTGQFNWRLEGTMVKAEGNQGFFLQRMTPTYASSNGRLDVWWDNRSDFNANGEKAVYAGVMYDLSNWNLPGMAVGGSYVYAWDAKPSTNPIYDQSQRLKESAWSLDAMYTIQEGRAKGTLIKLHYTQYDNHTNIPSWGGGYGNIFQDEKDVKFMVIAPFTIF
In words: isothermal titration calorimetry. The settings on record: detergent-solubilized protein; one-site binding model.

One may read the Kd as a measure of binding affinity in units of concentration.

Turning to `CC(=O)N[C@H]1[C@H](O[C@H]2[C@H](O)[C@@H](NC(C)=O)[C@H](O[C@H]3[C@H](O)[C@@H](NC(C)=O)C(O)O[C@@H]3CO)O[C@@H]2CO)O[C@H](CO)[C@@H](O[C@@H]2O[C@H](CO)[C@@H](O[C@@H]3O[C@H](CO)[C@@H](O)[C@H](O)[C@H]3NC(C)=O)[C@H](O)[C@H]2NC(C)=O)[C@@H]1O` (some centres unmarked) [chitopentaose], the dissociation constant Kd amounted to 23 ± 2 µM. On to `CC(=O)N[C@H]1[C@H](O[C@H]2[C@H](O)[C@@H](NC(C)=O)[C@H](O[C@H]3[C@H](O)[C@@H](NC(C)=O)C(O)O[C@@H]3CO)O[C@@H]2CO)O[C@H](CO)[C@@H](O[C@@H]2O[C@H](CO)[C@@H](O[C@@H]3O[C@H](CO)[C@@H](O[C@@H]4O[C@H](CO)[C@@H](O)[C@H](O)[C@H]4NC(C)=O)[C@H](O)[C@H]3NC(C)=O)[C@H](O)[C@H]2NC(C)=O)[C@@H]1O` (some centres unmarked) [chitohexaose], for which the affinity, expressed as Kd, was 17 ± 0.6 µM.
